# How the values were obtained:
# Assay in all cases: biochemical
# Design in all cases: DiscoverX KinomeScan competition binding assay across human kinases; per cent of control at 10 and 100 uM
# TIE2 = target: T1, TIE2 (Homo sapiens, UniProt Q02763); conditions: competition binding, % of control; read-out: Percent Control (100 uM Levosimendan)
# T1 construct: gene TEK
# In short: (§1)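 Binding is expressed as %control, normalised between positive and negative control signals. The compound (levosimendan) was tested at 10 μM and 100 μM in the DiscoverX KinomeScan competition binding format against human kinases.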
# FRK = FRK (Homo sapiens, UniProt P42685); conditions: competition binding, % of control; read-out: Percent Control (100 uM Levosimendan)
# Chain of FRK (P42685 whole entry): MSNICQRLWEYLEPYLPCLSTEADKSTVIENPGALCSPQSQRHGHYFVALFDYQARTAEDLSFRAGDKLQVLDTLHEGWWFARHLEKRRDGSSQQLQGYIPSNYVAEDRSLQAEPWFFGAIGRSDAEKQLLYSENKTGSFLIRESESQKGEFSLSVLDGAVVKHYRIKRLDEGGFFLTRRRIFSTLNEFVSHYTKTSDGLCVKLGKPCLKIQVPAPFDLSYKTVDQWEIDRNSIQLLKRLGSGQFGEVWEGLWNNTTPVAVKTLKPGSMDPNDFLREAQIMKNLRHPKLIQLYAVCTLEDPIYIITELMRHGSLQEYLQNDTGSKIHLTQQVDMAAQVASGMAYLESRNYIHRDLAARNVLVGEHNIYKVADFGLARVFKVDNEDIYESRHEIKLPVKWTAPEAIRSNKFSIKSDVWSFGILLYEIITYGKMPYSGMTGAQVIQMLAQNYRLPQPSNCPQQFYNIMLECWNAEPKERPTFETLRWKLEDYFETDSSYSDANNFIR
# In short: as §1
# DCAMKL1 = target: T2, DCAMKL1 (Homo sapiens, UniProt O15075); conditions: competition binding, % of control; read-out: Percent Control (100 uM Levosimendan)
# T2 construct: gene DCLK1
# In short: as §1
# NEK4 = NEK4 (Homo sapiens, UniProt P51957); conditions: competition binding, % of control; read-out: Percent Control (100 uM Levosimendan)
# In short: as §1
# EGFR(L858R,T790M) = EGFR(L858R,T790M) (Homo sapiens, UniProt P00533, L858R/T790M); conditions: competition binding, % of control; read-out: Percent Control (100 uM Levosimendan)
# Chain of EGFR(L858R,T790M) (P00533 whole entry T790M/L858R): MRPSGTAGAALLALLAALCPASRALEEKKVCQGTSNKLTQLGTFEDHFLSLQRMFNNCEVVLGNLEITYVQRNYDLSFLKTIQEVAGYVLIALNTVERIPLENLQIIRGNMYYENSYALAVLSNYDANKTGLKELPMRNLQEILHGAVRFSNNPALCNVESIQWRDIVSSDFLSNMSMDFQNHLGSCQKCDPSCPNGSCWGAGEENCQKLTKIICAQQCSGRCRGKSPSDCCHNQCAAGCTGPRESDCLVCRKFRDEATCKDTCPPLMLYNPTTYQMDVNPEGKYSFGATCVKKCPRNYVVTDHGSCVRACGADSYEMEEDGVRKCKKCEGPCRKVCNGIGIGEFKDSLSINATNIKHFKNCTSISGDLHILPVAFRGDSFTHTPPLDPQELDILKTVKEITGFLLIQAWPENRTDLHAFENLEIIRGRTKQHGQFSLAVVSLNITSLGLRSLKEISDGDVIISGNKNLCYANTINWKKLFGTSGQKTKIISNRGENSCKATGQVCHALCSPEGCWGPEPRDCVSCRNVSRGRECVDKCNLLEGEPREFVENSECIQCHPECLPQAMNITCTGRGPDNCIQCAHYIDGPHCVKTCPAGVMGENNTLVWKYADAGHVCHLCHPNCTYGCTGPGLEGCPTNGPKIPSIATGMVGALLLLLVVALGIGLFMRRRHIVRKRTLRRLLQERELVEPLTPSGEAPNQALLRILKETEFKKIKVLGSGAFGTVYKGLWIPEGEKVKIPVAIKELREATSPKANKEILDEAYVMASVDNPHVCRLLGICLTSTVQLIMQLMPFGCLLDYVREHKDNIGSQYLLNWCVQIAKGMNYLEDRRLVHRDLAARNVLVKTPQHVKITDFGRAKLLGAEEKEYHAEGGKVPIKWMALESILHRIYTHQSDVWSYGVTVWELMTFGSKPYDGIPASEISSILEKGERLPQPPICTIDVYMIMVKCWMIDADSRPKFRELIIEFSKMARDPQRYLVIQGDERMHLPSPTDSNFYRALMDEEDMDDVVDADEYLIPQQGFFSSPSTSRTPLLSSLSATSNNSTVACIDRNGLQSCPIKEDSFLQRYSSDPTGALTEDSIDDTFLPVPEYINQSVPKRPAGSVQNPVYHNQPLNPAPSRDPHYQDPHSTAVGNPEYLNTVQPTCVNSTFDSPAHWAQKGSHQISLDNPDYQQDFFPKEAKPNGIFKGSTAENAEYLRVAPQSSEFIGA
# In short: as §1
# ZAK = target: T3, ZAK (Homo sapiens, UniProt Q9NYL2); conditions: competition binding, % of control
# T3 construct: gene MAP3K20
# T3 sequence (Q9NYL2 whole entry): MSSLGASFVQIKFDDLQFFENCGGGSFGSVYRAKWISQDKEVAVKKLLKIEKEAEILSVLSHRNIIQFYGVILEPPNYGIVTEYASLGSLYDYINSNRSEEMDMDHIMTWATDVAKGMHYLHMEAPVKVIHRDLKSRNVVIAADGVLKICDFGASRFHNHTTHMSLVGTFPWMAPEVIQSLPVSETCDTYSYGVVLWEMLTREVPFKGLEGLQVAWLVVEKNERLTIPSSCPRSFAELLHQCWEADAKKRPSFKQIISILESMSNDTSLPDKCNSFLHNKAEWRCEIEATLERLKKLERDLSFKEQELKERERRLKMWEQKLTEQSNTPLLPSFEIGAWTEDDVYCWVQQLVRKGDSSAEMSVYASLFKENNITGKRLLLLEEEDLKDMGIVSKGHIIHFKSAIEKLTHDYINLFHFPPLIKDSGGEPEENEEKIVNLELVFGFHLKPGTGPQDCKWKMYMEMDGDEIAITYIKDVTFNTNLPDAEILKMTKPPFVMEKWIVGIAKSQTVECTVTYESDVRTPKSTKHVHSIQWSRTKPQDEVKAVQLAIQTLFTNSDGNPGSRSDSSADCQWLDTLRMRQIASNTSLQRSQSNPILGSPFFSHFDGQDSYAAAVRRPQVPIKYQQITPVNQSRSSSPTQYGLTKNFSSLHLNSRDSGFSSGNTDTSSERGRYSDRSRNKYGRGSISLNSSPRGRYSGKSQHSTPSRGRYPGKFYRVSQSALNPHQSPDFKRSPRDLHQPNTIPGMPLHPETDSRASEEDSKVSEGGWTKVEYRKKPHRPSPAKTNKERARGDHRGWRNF
# In short: as §1
# ERN1 = ERN1 (Homo sapiens, UniProt O75460); conditions: competition binding, % of control; read-out: Percent Control (100 uM Levosimendan)
# In short: as §1
# PIK4CB = target: T4, PIK4CB (Homo sapiens, UniProt Q9UBF8); conditions: competition binding, % of control; read-out: Percent Control (100 uM Levosimendan)
# T4 construct: gene PI4KB
# In short: as §1
# LRRK2 = LRRK2 (Homo sapiens, UniProt Q5S007); conditions: competition binding, % of control; read-out: Percent Control (100 uM Levosimendan)
# In short: as §1
# PKAC-alpha = target: T5, PKAC-alpha (Homo sapiens, UniProt P17612); conditions: competition binding, % of control; read-out: Percent Control (100 uM Levosimendan)
# T5 construct: gene PRKACA
# In short: as §1
# CSK = CSK (Homo sapiens, UniProt P41240); conditions: competition binding, % of control; read-out: Percent Control (100 uM Levosimendan)
# In short: as §1
# LATS1 = LATS1 (Homo sapiens, UniProt O95835); conditions: competition binding, % of control; read-out: Percent Control (100 uM Levosimendan)
# In short: as §1
# MARK2 = MARK2 (Homo sapiens, UniProt Q7KZI7); conditions: competition binding, % of control; read-out: Percent Control (100 uM Levosimendan)
# In short: as §1
# DCAMKL3 = target: T6, DCAMKL3 (Homo sapiens, UniProt Q9C098); conditions: competition binding, % of control; read-out: Percent Control (100 uM Levosimendan)
# T6 construct: gene DCLK3
# T6 sequence (Q9C098 whole entry): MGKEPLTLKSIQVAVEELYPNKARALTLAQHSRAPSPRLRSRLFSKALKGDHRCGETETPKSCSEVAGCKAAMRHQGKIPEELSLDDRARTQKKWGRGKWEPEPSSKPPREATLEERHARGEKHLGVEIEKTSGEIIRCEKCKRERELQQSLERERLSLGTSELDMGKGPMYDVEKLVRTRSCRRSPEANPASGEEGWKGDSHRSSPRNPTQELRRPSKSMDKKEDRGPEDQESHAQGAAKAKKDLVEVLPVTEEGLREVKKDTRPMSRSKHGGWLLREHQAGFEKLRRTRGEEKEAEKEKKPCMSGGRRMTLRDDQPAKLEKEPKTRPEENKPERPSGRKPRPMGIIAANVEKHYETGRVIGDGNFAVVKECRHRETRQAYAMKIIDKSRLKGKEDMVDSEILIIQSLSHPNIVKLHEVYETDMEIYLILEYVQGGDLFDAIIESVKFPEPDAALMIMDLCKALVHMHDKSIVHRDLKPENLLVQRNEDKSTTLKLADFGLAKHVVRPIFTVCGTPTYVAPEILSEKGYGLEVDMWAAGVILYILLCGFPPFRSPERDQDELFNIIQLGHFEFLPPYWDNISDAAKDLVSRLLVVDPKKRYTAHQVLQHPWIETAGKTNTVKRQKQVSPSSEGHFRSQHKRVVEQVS
# In short: as §1
# MET(Y1235D) = MET(Y1235D) (Homo sapiens, UniProt P08581, Y1235D); conditions: competition binding, % of control; read-out: Percent Control (100 uM Levosimendan)
# In short: as §1
# [1] = target: T7, RSK2(Kin.Dom.2-C-terminal) (Homo sapiens, UniProt P51812); conditions: competition binding, % of control; read-out: Percent Control (100 uM Levosimendan)
# T7 construct: gene RPS6KA3; Kin.Dom.2-C-terminal
# T7 sequence (P51812 whole entry): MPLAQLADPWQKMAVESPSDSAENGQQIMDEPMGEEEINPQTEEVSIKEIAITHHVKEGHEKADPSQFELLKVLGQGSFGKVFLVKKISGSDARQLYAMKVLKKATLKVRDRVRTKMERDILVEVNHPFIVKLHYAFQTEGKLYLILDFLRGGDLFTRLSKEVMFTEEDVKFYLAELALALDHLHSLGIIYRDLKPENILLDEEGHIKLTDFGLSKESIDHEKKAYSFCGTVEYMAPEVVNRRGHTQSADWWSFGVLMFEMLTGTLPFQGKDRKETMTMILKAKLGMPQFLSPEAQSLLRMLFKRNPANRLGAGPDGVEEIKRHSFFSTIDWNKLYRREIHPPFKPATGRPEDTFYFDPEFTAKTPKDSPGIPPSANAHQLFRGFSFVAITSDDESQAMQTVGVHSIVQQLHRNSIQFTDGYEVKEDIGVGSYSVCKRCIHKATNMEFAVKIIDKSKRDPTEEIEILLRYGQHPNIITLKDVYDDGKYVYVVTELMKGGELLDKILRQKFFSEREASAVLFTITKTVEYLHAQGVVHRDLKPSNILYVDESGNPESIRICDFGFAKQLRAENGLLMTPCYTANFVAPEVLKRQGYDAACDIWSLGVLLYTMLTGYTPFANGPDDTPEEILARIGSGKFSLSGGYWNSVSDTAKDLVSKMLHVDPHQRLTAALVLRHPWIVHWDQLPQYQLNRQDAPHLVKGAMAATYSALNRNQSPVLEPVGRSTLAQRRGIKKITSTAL
# In short: as §1
# [2] = target: T8, RPS6KA4(Kin.Dom.2-C-terminal) (Homo sapiens, UniProt O75676); conditions: competition binding, % of control; read-out: Percent Control (100 uM Levosimendan)
# T8 construct: Kin.Dom.2-C-terminal
# In short: as §1
# [3] = target: T9, RSK3(Kin.Dom.1-N-terminal) (Homo sapiens, UniProt Q15349); conditions: competition binding, % of control; read-out: Percent Control (100 uM Levosimendan)
# T9 construct: gene RPS6KA2; Kin.Dom.1-N-terminal
# In short: as §1
# T1 sequence (Q02763 whole entry): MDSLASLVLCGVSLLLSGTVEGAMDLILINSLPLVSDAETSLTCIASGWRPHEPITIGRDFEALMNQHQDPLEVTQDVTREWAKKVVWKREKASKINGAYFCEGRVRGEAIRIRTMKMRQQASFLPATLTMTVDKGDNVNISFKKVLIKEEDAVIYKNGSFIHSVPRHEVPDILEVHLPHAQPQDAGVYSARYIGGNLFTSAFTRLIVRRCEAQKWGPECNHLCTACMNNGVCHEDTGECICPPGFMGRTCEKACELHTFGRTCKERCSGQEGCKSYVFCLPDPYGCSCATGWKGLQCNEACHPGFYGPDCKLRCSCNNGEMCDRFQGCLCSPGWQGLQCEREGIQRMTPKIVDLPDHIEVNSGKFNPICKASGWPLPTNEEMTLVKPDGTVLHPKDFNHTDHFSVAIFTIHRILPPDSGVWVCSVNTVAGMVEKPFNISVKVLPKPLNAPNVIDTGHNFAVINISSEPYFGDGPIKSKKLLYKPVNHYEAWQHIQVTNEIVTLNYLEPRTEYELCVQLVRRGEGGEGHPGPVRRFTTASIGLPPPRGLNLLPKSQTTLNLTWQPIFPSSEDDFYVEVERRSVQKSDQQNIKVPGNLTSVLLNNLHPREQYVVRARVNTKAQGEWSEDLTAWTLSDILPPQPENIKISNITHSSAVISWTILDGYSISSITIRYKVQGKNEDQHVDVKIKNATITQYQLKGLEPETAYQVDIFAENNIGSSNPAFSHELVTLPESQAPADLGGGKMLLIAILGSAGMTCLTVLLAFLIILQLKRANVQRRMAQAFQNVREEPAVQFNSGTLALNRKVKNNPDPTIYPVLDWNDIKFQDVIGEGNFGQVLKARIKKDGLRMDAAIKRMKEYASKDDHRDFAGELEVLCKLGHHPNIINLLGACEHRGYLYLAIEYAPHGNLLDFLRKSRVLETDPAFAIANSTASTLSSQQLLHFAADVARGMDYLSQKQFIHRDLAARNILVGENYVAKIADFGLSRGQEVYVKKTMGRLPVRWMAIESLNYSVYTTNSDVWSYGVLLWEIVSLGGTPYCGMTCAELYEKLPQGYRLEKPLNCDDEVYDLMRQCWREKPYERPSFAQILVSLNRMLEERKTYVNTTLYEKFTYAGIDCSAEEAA
structure (smiles),measurement,setting,value
C[C@@H]1CC(=O)NN=C1c1ccc(NN=C(C#N)C#N)cc1 [levosimendan],remaining binding at 100 µM,TIE2,78%
same,remaining binding at 100 µM,FRK,100%
same,remaining binding at 100 µM,DCAMKL1,67%
same,remaining binding at 100 µM,NEK4,100%
same,remaining binding at 100 µM,"EGFR(L858R,T790M)",82%
same,remaining binding at 10 µM,ZAK; read-out: Percent Control (10 uM Levosimendan),100%
same,remaining binding at 100 µM,ZAK; read-out: Percent Control (100 uM Levosimendan),52%
same,remaining binding at 100 µM,ERN1,79%
same,remaining binding at 100 µM,PIK4CB,100%
same,remaining binding at 100 µM,LRRK2,77%
same,remaining binding at 100 µM,PKAC-alpha,94%
same,remaining binding at 100 µM,CSK,76%
same,remaining binding at 100 µM,LATS1,100%
same,remaining binding at 100 µM,MARK2,95%
same,remaining binding at 100 µM,DCAMKL3,100%
same,remaining binding at 100 µM,MET(Y1235D),57%
same,remaining binding at 100 µM,[1],66%
same,remaining binding at 100 µM,[2],95%
same,remaining binding at 100 µM,[3],100%

# — paper PMC6576746, “Rational discovery of dual-indication multi-target PDE/Kinase inhibitor for precision anti-cancer therapy using structural systems pharmacology” (PLoS Computational Biology, 2019)
